Like-named read-outs stand apart in the source and are kept apart here.
Columns and labels:
HEp-2 cells = experiment: MTS cell viability assay, HEp-2 cells; format: cell-based, human; conditions: 62.5 and 31.25 µM, 24 h
Protocol: (§1) The cytotoxic effects of the 4-chloroisocoumarin compounds 2a–g and 6a–h (24 h) were tested against HEp-2 and McCoy B cells using the MTS cell viability assay. HEp-2 and McCoy B cells were selected, as these are routinely used for the cultivation of chlamydial species, and low cytotoxicity against host cells is required to evaluate the anti-chlamydial properties of a test compound [27].
(§2) HEp-2 (human epithelial type 2, CCL-23, ATCC®, Virginia, USA) or McCoy B (mouse fibroblast, CRL-1696, ATCC®) cells were grown to 80–100% confluence, and cell density was determined with a haemocytometer. Cells were then diluted to 1 × 10^5 cells/mL, and 100 µL was added to each well in a 96-well plate, with 3 wells left as controls. Cells were grown for 24 h, and the media was removed and then replaced with fresh media containing 0.1% DMSO and the drug for testing in triplicate. Drugs and cells were incubated for 24 h, and then 20 µL of MTS and PMS solution was added and then incubated for a further four hours. Absorbance was measured at 490 nm on a TECAN M200 Infinite plate reader and data were processed using Microsoft Excel^TM with the following equation to determine cell viability relative to DMSO controls. Cellviability%=AbsorbanceDrug−AbsorbanceDye/AbsorbanceDMSO−AbsorbanceDye

[1] = MTS cell viability assay, HEp-2 cells; format: cell-based, human; conditions: human, HEp-2 cells, 125 µM, read-out: HEp-2 cell viability, % of DMSO-treated control cells
Protocol: as §1, §2

CtHtrA [2] = biological target: T1, CtHtrA (Chlamydia trachomatis serovar D, UniProt P18584); experiment: CtHtrA protease inhibition assay; format: biochemical; conditions: for Relative Selectivity: (relative CtHtrA potency)/(relative HLE potency); for IC50: IC50 against CtHtrA; for IC50 / Relative Potency against CtHtrA: control JO146; for Relative Potency against CtHtrA: [IC50 of control]/[IC50 test compound]
T1 construct: made in house; host or cells: E. coli BL21(DE3), pET22b
Protocol: The inhibitory activity of compounds 2a–g against CtHtrA was evaluated. […] As these compounds are reportedly covalent inhibitors of serine proteases, a true IC50 is unable to be calculated. Instead, the residual activity of the protease is monitored over time in response to a range of compound concentrations, and an IC50 value is interpolated from a dose–response curve (see Figures S2–S4 and Tables S1 and S2). This IC50 value is then compared to a positive control (JO146 was used for 2a–g, and 2g was used for 6a–h), giving the ‘relative potency’. This is the established method for assessing CtHtrA inhibitory potency. […] This effect may be due to depth restrictions within the S1 subpocket, as kinetic studies on the rates of protease inhibition in HLE were reduced by larger C-3 alkoxy substituents. Chain branching (iso-propyl and sec-butyl substituents) increased the activity, resulting in a 1.4-fold increase for 2e over 2b and a 2.8-fold improvement for 2g over 2c.
CtHtrA was expressed using an procedure adapted from the literature. Recombinant E. coli BL21(DE3) pET22b was grown in LB media containing 100 ug/mL ampicillin to an OD600 of 0.5-0.6 in 5 × 400 mL batches at 37 °C. Isopropyl β-D-1-thioglactopyranoside (1 M, 400 µL, 1 mM final concentration) was added to each flask and incubated at 30 °C with shaking at 150 rpm for an additional 2.5 h. The culture was centrifuged at 4000× g for 15 min at 4 °C, and the cell pellet was harvested and resuspended in lysis buffer (50 mM phosphate, 10 mM imidazole, 500 mM NaCl, 0.1% Triton X-100, 10% glycerol). Lysozyme was added to the suspended cells and was sonicated in 15 cycles of 15 s, with one minute between cycles while maintaining 4 °C, and then centrifuged at 8000× g for 20 min to remove any debris, retaining the supernatant for protein purification.
TALON® metal affinity resin (Takara cat no. 635652, 5 mL) was added to each lysate tube and washed sequentially with lysis buffer (2 × 45 mL) and stringency buffer (4 × 45 mL) and then eluted with elution buffer (2 × 5 mL), allowing incubations at 4 °C for 20 min per wash, and centrifuging at 2500× g and 4 °C between washes to pellet the resin. The eluates were dialyzed in Tris buffer (pH 7.0, 50 mM, 4 L) with magnesium chloride (20 mM) at 4 °C five times over 24 h, with a minimum of three hours per dialysis change. Protein expression and isolation were confirmed with SDS-PAGE Coomassie stained gel, which was examined for the band at the correct size, and a BCA assay to confirm purified protein concentration prior to use.
CtHtrA was added to 25 wells in a black 96-well plate (40–80 µL, 10 µL increments), to which Tris-HCl buffer (50 mM, pH 7.0 with 20 mM MgCl2) was added to bring the total volume to 90 µL for 10 wells and 85 µL for the remaining 15. JO146 (10 µM, 5 µL) was added to 5 wells and JO146 (1 µM, 5 µL) was added to another 5 wells, with DMSO (5 µL) being added to the remaining 5 as a control. The plate was incubated at 37 °C for 10 min before substrate (MCA-ENLHLPLPIIFK-DNP, 10 µL, 1 mg/mL, 50% isopropanol in buffer) was added and analyzed in a TECAN Infinite Pro M200 plate reader with an excitation wavelength of 340 nm and fluorescence measured at 405 nm with four reads per well at 60 s intervals. A minimum volume of CtHtrA granting a fluorescence change of 300 min^−1 was used for subsequent assay.
The determined appropriate volume of CtHtrA in buffer was added to a 96-well non-transparent black plate and diluted to 85 µL with buffer solution. Drug or control (5 µL) at a maximum of 20% DMSO/80% buffer was added to the appropriate well with DMSO controls, and the plate was incubated for 10 min to allow activation by the protein. MCA-ENLHLPLPIIFK-DNP (Mimotopes, Australia, 1 mg/mL, 10 µL) was added and immediately monitored on a TECAN M200 Infinite plate reader at 37 °C every 60 s for 30 min, using the same wavelengths as for the activity evaluation. […]

[3] = biological target: T2, Human Leukocyte Elastase (HLE) (Homo sapiens, UniProt P08246); experiment: HLE protease inhibition assay; format: biochemical; conditions: for Relative Potency against HLE: [IC50 of JO146]/[IC50 test compound]
T2 construct: purchased Athens Research and Technology 16-15-051200
T2 sequence (P08246 30-247 limits assumed): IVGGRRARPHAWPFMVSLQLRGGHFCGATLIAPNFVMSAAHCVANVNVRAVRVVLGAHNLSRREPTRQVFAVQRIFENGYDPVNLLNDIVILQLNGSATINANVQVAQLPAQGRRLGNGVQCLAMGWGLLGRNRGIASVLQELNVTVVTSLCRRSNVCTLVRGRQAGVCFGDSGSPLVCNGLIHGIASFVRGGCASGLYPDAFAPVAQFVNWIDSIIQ
Protocol: Elastase was purchased from Athens Research and Technology (Cat No. 16-15-051200). Elastase (100 µg) was dissolved in Tris buffer (100 mM Tris, 20 mM CaCl2, pH 8.1, 3.14 mL), giving a concentration of 1.117 µM, and 25 µL was added to each well containing the respective inhibitor. The plate was incubated at 37 °C for 15 min.
N-Suc-AAA-pNA (Sigma Aldrich, Bayswater, Australia, S4760, 100 µL, 1 mg/mL, […]) was added to each well, and the absorbance was monitored every six minutes at 405 nm. The rate of change of absorbance was used as a comparison to controls to determine the % inhibition of protein in Microsoft Excel^TM (v2402), and these values were exported to GraphPad Prism (v8.0.1) for IC50 calculation.

CtHtrA [4] = biological target: T1, CtHtrA; design: method as in PMID 23796320; conditions: read-out: IC50 against CtHtrA; reversible covalent complex with CtHtrA; cited from earlier work

T1 sequence (P18584 17-497): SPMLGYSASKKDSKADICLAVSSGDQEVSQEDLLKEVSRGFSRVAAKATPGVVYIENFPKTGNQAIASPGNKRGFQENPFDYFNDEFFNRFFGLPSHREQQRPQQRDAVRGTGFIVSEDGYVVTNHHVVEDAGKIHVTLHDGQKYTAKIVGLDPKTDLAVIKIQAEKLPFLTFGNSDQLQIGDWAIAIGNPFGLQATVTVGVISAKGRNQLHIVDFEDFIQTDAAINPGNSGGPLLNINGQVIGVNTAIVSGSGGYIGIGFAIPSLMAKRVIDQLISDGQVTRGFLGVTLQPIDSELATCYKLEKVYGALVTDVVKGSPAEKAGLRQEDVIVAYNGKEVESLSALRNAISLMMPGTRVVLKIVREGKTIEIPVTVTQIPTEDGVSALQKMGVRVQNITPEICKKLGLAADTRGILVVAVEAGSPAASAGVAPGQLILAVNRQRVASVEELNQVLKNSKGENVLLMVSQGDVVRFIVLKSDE

Structure (SMILES) | effect on HEp-2 cell viability (HEp-2 cells) | viability at 24 h, 125 µM [1] [%] | Relative Selectivity (CtHtrA [2]) | IC50 (CtHtrA [2]; Table S2, Batch 1) [µM] | Relative Potency against CtHtrA (CtHtrA [2]) | IC50 ([3]; Table S1, variable slope four parameter fit, read-out: IC50 against HLE) [µM] | Relative Potency against HLE [3] | IC50 (CtHtrA [4]) [µM] | IC50 (CtHtrA [2]; Table S2, Batch 2) [µM] | IC50 [3] [µM]
COc1oc(=O)c2ccccc2c1Cl [Compound 2a, 3-Methoxy-4-chloroisocoumarin] | did not produce significant effects | 50 | 113.0 | 30.6 | 2.33 | 39.5 | 0.0207 |  |  | 
CC(C)[C@H](NC(=O)OC(C)(C)C)C(=O)N1CCCC1C(=O)N[C@@H](C(C)C)P(=O)(Oc1ccccc1)Oc1ccccc1 (some centres unmarked) [JO146, reference compound] |  |  | 1.00 | 71.5 | 1.00 |  | 1.00 | 12 | 60 | 0.817

Reference: article PMC11013143, “4-Chloroisocoumarins as Chlamydial Protease Inhibitors and Anti-Chlamydial Agents” (Molecules, 2024)
